# Columns and labels:
# healthy volunteers = assay: First in human study Part 1: SAD, incidence of adverse events; assay type: in vivo; details: N = 6
# Protocol: This example describes a first-in-human study of compound I conducted in healthy volunteers. A total of 54 subjects were administered to study medication. Part 1 of the first in human study administered single ascending doses of 0.15%, 1.5%, 2.5% w/v (1 drop) of compound I in an eye drop.
# Safety assessments: Safety assessments consisted of collecting all adverse events (AEs), serious adverse events (SAEs), including systemic and ocular adverse events, along with their severity and relationship to study drug. Systemic safety assessments included regular monitoring of hematology, blood chemistry and urinalysis performed at study center and regular assessments of physical examination, vital signs (systolic and diastolic blood pressure, pulse rate, and body temperature), ECG, pregnancy and assessments of fertility and hand immersion test at 49° C. during MAD part. Ocular safety assessments included early treatment diabetic retinopathy study (ETDRS) visual acuity, intraocular pressure, slit-lamp biomicroscopy, corneal staining and dilated fundus exam.
# (§1) Inclusion Criteria: • Written informed consent was obtained before any assessment was performed. • Healthy male and female subjects aged 18 to 50 years (inclusive), and in good health as determined by past medical history, physical examination, vital signs, ECG, and laboratory tests at Screening. • At Screening, and Baseline, vital signs (systolic and diastolic blood pressure (BP) and pulse rate) were assessed in the sitting position after the subject had rested for at least 3 minutes and again after 3 minutes in the standing position. […] BMI=Body weight (kg)/[Height (m)]^2 • Subjects who were able to communicate well with the Investigator, to understand and comply with the requirements of the study. • For Part 3, subjects Baseline levels of eye sensitivity were to be in the range of 50 to 60 mm (inclusive) as measured by the Cochet-Bonnet esthesiometer.
# History of any chronic eye disease other than refractive error, incipient cataract, strabismic amblyopia, or anisometropic amblyopia. Subjects with a history of acute eye disease (such as infection, corneal abrasion or allergy) within the past 6 months from Screening were eligible if the disease was not active. • Any currently active ocular condition that required use of topical eye drops. • Subjects using continuous positive airway pressure or other sleep apnea devices.
# cornea = assay: Esthesiometry assessment (Part 3): corneal sensitivity, anesthetic effect; assay type: in vivo, human; details: for Anesthetic effect on the cornea (esthesiometry): single eye drop: tetracaine 0.5%, diclofenac 0.1%
# From the text: Part 3 was an esthesiometry assessment to evaluate the anesthetic properties of compound I. Part 3 of the study had four arms, with compound I, vehicle, tetracaine (0.5% ophthalmic solution, used as a positive control) and diclofenac sodium (0.1% ophthalmic solution, used as the active NSAID comparator). Ocular anesthetic was selected because of its established anesthetic effect; however it is not the standard of care due to its negative effect on wound healing. NSAID is the current standard of care for corneal pain after PRK with minimal anesthetic but significant pain control properties. Vehicle eye drops were used as a negative control to enable better determination of the potential anesthetic effect. Twelve healthy subjects, who met the eligibility criteria, were randomized to receive a single eye drop of 4 study treatments, each during 1 of 4 different study days (Days 1, 4, 7 and 10). Each subject was randomized to receive the study treatment according to one of the following four sequences: • Sequence 1: Anesthetic, NSAID, compound I 2.5%, Vehicle • Sequence 2: NSAID, Vehicle, Anesthetic, compound I 2.5% • Sequence 3: Vehicle, compound I 2.5%, NSAID, Anesthetic • Sequence 4: compound I 2.5%, Anesthetic, Vehicle, NSAID
# as §1
# The first-in-human study further evaluated potential anesthetic effect of topical ocular 2.5% compound I by esthesiometry testing, i.e. measurement of the filament length (cm) when the threshold of cornea touch is perceived.
structure (smiles),measurement,setting,value
"CC(C)c1nc2cc(O)ccc2c(=O)n1-c1ccc(C#N)cc1 [Compound I, 4-(7-hydroxy-2-isopropyl-4-oxo-4H-quinazolin-3-yl)-benzonitrile]",AEs leading to of study: nE,healthy volunteers; 0.15% 1 drop,0
same,AEs leading to of study: nS (%),healthy volunteers; 0.15% 1 drop,0 (0.0) nS (%)
same,AEs of Mild severity: nE,healthy volunteers; 0.15% 1 drop,3
same,AEs of Mild severity: nS (%),healthy volunteers; 0.15% 1 drop,1 (16.7) nS (%)
same,AEs of Moderate severity: nE,healthy volunteers; 0.15% 1 drop,0
same,AEs of Moderate severity: nS (%),healthy volunteers; 0.15% 1 drop,0 (0.0) nS (%)
same,"AEs, Subjects with AEs: nE (AE events)",healthy volunteers; 0.15% 1 drop,3
same,"AEs, Subjects with AEs: nS (%) (subjects with at least one AE)",healthy volunteers; 0.15% 1 drop,1 (16.7) nS (%)
same,Serious AEs: nE,healthy volunteers; 0.15% 1 drop,0
same,Serious AEs: nS (%),healthy volunteers; 0.15% 1 drop,0 (0.0) nS (%)
same,Study drug-related AEs: nE,healthy volunteers; 0.15% 1 drop,3
same,Study drug-related AEs: nS (%),healthy volunteers; 0.15% 1 drop,1 (16.7) nS (%)
same,Study-drug related AEs leading to discontinuation of study: nE,healthy volunteers; 0.15% 1 drop,0
same,Study-drug related AEs leading to discontinuation of study: nS (%),healthy volunteers; 0.15% 1 drop,0 (0.0) nS (%)
same,AEs leading to of study: nE,healthy volunteers; 1.5% 1 drop,0
same,AEs leading to of study: nS (%),healthy volunteers; 1.5% 1 drop,0 (0.0) nS (%)
same,AEs of Mild severity: nE,healthy volunteers; 1.5% 1 drop,3
same,AEs of Mild severity: nS (%),healthy volunteers; 1.5% 1 drop,2 (33.3) nS (%)
same,AEs of Moderate severity: nE,healthy volunteers; 1.5% 1 drop,0
same,AEs of Moderate severity: nS (%),healthy volunteers; 1.5% 1 drop,0 (0.0) nS (%)
same,"AEs, Subjects with AEs: nE (AE events)",healthy volunteers; 1.5% 1 drop,3
same,"AEs, Subjects with AEs: nS (%) (subjects with at least one AE)",healthy volunteers; 1.5% 1 drop,2 (33.3) nS (%)
same,Serious AEs: nE,healthy volunteers; 1.5% 1 drop,0
same,Serious AEs: nS (%),healthy volunteers; 1.5% 1 drop,0 (0.0) nS (%)
same,Study drug-related AEs: nE,healthy volunteers; 1.5% 1 drop,3
same,Study drug-related AEs: nS (%),healthy volunteers; 1.5% 1 drop,2 (33.3) nS (%)
same,Study-drug related AEs leading to discontinuation of study: nE,healthy volunteers; 1.5% 1 drop,0
same,Study-drug related AEs leading to discontinuation of study: nS (%),healthy volunteers; 1.5% 1 drop,0 (0.0) nS (%)
same,AEs leading to of study: nE,healthy volunteers; 2.5% 1 drop,0
same,AEs leading to of study: nS (%),healthy volunteers; 2.5% 1 drop,0 (0.0) nS (%)
same,AEs of Mild severity: nE,healthy volunteers; 2.5% 1 drop,0
same,AEs of Mild severity: nS (%),healthy volunteers; 2.5% 1 drop,0 (0.0) nS (%)
same,AEs of Moderate severity: nE,healthy volunteers; 2.5% 1 drop,0
same,AEs of Moderate severity: nS (%),healthy volunteers; 2.5% 1 drop,0 (0.0) nS (%)
same,"AEs, Subjects with AEs: nE (AE events)",healthy volunteers; 2.5% 1 drop,0
same,"AEs, Subjects with AEs: nS (%) (subjects with at least one AE)",healthy volunteers; 2.5% 1 drop,0 (0.0) nS (%)
same,Serious AEs: nE,healthy volunteers; 2.5% 1 drop,0
same,Serious AEs: nS (%),healthy volunteers; 2.5% 1 drop,0 (0.0) nS (%)
same,Study drug-related AEs: nE,healthy volunteers; 2.5% 1 drop,0
same,Study drug-related AEs: nS (%),healthy volunteers; 2.5% 1 drop,0 (0.0) nS (%)
same,Study-drug related AEs leading to discontinuation of study: nE,healthy volunteers; 2.5% 1 drop,0
same,Study-drug related AEs leading to discontinuation of study: nS (%),healthy volunteers; 2.5% 1 drop,0 (0.0) nS (%)
same,"Corneal sensitivity, least squares means, Test vs Ref: vs Tetracaine 0.5%",cornea; Compound I 2.5% (N=11) vs Tetracaine 0.5% (N=12) at 2.5 and 10 minutes post-dose,statistical and clinical significance were observed
same,Difference in corneal sensitivity vs vehicle,"cornea; compound I 2.5%, time points up to 30 minutes post-dose",No difference
same,Anesthetic effect on the cornea (esthesiometry),cornea; compound I 2.5%,no anesthetic effect at any time point
same,Anesthetic effect on the cornea (esthesiometry),"cornea; compound I 2.5%, listed as compound I",lack of anesthetic effect

# From US11234982B2, “Methods for treating ocular surface pain” (NOVARTIS AG, priority 2019, dated 2022)
